According to patent publication US12692221B2 (priority 2024, dated 2026):

What was measured:
dopamine transporter(h) = biological target: T1, dopamine transporter(h) (Homo sapiens, UniProt Q01959); assay: Radioligand binding DA transporter (h) (antagonist radioligand), [^3H]BTCP, CHO cells
T1 construct: expressed in transfected cells; host or cells: CHO cells
Procedure: (§1) Methods—Binding Assays: In vitro binding assays were performed using human recombinant receptors expressed in mammalian cell lines. Receptors were expressed in either HEK-293 or CHO cells depending on the target, and assay conditions (radioligand, concentration, nonspecific competitor, temperature, and incubation time) were optimized for each receptor. All assays were conducted in triplicate, and specific binding was quantified by scintillation counting as the detection method for each listed assay.
(§2) Specific binding was expressed as a percentage of control-specific binding, and percent inhibition was calculated using the formula in Ex. 8 above. Half-maximal inhibitory concentrations (IC50) were determined by non-linear regression analysis of the inhibition curves using the Hill equation (see Ex. 8). Inhibition constants (Ki) were calculated using the Cheng-Prusoff equation (see Ex. 8). KD values used in these calculations had been previously established for each receptor under the assay conditions (see Table 6). Data analysis was performed using software developed at Cerep and validated against SigmaPlot 4.0 for Windows.

alpha1A (h) = biological target: T2, alpha1A (h) (Homo sapiens, UniProt P35348); assay: Radioligand binding alpha1A (h) (antagonist radioligand), [^3H]prazosin, CHO cells
T2 construct: expressed in transfected cells; host or cells: CHO cells
T2 sequence (P35348 1-466): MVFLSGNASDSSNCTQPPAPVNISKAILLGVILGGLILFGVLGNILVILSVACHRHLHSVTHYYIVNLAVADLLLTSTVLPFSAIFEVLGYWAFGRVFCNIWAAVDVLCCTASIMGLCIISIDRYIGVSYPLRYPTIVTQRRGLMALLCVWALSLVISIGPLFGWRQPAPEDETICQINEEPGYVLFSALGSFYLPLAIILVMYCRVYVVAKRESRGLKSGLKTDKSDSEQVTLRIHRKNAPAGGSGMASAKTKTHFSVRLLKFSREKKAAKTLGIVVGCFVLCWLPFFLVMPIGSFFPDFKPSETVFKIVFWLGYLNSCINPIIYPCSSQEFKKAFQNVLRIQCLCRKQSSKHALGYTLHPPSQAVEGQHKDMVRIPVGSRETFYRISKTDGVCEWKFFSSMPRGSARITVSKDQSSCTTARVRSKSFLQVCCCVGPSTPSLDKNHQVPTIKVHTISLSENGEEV
Procedure: as §1, §2

BZD (central) = assay: Radioligand binding BZD (central) (agonist radioligand), [^3H]flunitrazepam, rat cerebral cortex
COX2(h) = biological target: T3, COX2(h) (Homo sapiens, UniProt P35354); assay: Enzyme assay COX2(h), arachidonic acid + ADHP, fluorimetry; assay type: biochemical
T3 construct: host or cells: Sf9 cells
T3 sequence (P35354 18-604): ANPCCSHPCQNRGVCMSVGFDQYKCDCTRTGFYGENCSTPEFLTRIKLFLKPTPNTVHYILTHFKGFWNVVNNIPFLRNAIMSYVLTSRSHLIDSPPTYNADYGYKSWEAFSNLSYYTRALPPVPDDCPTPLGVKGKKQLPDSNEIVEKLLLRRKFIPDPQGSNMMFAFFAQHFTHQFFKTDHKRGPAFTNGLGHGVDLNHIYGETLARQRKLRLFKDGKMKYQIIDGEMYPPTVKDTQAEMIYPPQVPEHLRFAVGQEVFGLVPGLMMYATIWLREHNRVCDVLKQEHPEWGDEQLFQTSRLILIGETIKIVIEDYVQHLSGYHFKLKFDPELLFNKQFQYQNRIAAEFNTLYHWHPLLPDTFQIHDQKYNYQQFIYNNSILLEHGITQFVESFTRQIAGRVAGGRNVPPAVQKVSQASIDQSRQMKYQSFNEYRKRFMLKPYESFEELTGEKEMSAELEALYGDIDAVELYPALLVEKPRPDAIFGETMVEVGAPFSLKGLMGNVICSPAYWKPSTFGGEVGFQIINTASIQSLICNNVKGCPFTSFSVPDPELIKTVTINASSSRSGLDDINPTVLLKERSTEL
Procedure: Methods—Enzyme and Uptake Assays: In vitro enzyme and uptake assays were conducted by Eurofins Discovery using human recombinant enzymes expressed in various mammalian and insect cell lines. Enzymatic activity was measured using appropriate substrates or tracers under conditions optimized for each target, as detailed in Table 7. Reactions were incubated at room temperature for a defined duration and terminated according to established protocols. The measured components (either enzymatic products or remaining substrate) were quantified using fluorimetry, photometry, scintillation counting, or LANCE technology, depending on the assay. Assay-specific parameters, including substrate identity, cell line source, incubation time, and detection method, are provided in Table 7.
All measurements were performed in technical replicates to ensure reproducibility and data quality.
Results were expressed both as a percentage of control-specific activity and as percent inhibition of control-specific activity. Percent activity was calculated as (measured specific activity/control specific activity)×100, and percent inhibition as 100−[(measured specific activity/control specific activity)×100], based on values obtained in the presence of test compounds. IC50 and EC50 values, along with Hill coefficients (nH), were determined by nonlinear regression analysis of inhibition or concentration-response curves generated from mean replicate values. Hill curve fitting was performed as previously described using software developed at Cerep and validated against SigmaPlot® 4.0 for Windows® (© 1997 by SPSS Inc.).

CB1 (h) = biological target: T4, CB1 (h) (Homo sapiens, UniProt P21554); assay: Radioligand binding CB1 (h) (agonist radioligand), [^3H]CP 55940, Chem-RBL cells
T4 construct: expressed in transfected cells; host or cells: Chem-RBL cells
T4 sequence (P21554 whole entry): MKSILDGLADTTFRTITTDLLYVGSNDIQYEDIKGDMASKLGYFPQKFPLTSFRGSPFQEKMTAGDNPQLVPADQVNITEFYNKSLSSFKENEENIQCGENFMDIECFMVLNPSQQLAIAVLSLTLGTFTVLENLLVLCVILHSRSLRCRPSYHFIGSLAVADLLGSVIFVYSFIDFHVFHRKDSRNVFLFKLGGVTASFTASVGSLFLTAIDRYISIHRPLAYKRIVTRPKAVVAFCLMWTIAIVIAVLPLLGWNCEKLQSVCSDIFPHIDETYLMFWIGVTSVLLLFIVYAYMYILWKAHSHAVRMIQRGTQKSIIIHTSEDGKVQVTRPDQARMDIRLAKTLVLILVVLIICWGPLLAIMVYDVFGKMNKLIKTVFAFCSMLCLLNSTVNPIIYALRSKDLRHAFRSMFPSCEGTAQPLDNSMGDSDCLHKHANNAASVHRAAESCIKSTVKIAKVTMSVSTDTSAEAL

MDR1 = assay: MDR1-MDCKII bidirectional permeability assay; assay type: in vitro ADME, Canine; details: dog; for recovery at 60 min / recovery at 40 min: MDCK-MDR1, pH 7.4; for recovery at 60 min / Papp A→B at 60 min: apical-to-basolateral; for recovery at 60 min: read-out: A-B Percent Recovery; for recovery at 40 min / Papp B→A at 40 min: basolateral-to-apical; for recovery at 40 min: read-out: B-A Percent Recovery; for Papp A→B at 60 min / Papp B→A at 40 min: MDCK-MDR1, HBSS pH 7.4, 37° C.
Procedure: Methods: In vitro permeability studies were performed using confluent monolayers of MDR1-transfected Madin-Darby Canine Kidney (MDR1-MDCKII) cells cultured under standard conditions. Cells were seeded onto permeable supports and maintained until they formed tight monolayers suitable for bidirectional transport studies. The assay was conducted at 37° C. using Hanks' balanced salt solution (HBSS) adjusted to pH 7.4 on both the apical and basolateral sides. For apical-to-basolateral (A-B) permeability, samples were collected at 0 and 60 minutes, whereas for basolateral-to-apical (B-A) permeability, samples were collected at 0 and 40 minutes. The concentration of each compound in the donor and receiver chambers was determined by HPLC-MS/MS, and all results were expressed in terms of peak area.
The apparent permeability coefficient (Papp) for each compound was calculated using the formula:
[formula] where VR was the volume of the receiver chamber, CR,end was the concentration of the compound in the receiver chamber at the final time point, At was the incubation time, and A was the surface area of the cell monolayer. The midpoint donor concentration (CD,mid) was calculated as the average of the donor concentrations at time 0 and the end time point, while CR,mid was calculated as one-half of CaR,end.
Compound recovery was also evaluated using the following formula:
[formula] where VD and VR were the volumes of the donor and receiver chambers, respectively, CD,end and CR,end were the compound concentrations at the final time point in their respective compartments, and CD0 was the initial concentration in the donor chamber. Monolayer integrity was assessed following the permeability assay using fluorescein as a paracellular marker compound. Fluorescein was added to the apical chamber and sampled in the basolateral chamber after incubation. […] Only data from wells that met this integrity threshold were included in the final analysis.

T1 sequence (Q01959 whole entry): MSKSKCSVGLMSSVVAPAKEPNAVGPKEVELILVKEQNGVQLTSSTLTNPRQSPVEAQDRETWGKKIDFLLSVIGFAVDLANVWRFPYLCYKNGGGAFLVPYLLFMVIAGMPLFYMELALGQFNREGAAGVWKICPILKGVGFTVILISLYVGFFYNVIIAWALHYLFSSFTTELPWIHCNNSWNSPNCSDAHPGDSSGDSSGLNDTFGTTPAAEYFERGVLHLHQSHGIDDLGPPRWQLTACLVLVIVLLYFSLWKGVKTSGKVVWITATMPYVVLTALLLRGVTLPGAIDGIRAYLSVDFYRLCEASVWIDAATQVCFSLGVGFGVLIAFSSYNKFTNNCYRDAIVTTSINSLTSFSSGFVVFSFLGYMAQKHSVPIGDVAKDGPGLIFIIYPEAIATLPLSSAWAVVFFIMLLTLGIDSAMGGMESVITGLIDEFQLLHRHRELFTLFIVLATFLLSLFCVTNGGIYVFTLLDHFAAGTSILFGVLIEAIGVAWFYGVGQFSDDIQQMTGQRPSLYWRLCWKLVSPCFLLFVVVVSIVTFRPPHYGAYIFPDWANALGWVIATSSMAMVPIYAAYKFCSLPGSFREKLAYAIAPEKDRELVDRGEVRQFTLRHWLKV

| Compound | Mean Percent Inhibition of Control Specific Binding (dopamine transporter(h)) | Mean Percent Inhibition of Control Specific Binding (alpha1A (h)) | Mean Percent Inhibition of Control Specific Binding (BZD (central)) | Mean Percent Inhibition of Control Specific Binding (COX2(h)) | Mean Percent Inhibition of Control Specific Binding (CB1 (h)) | recovery at 60 min (MDR1) | recovery at 40 min (MDR1) | Papp A→B at 60 min (MDR1) | Papp B→A at 40 min (MDR1) |
| --- | --- | --- | --- | --- | --- | --- | --- | --- | --- |
| COCc1cc(CCN)c(O)cc1CC(C)C [2CiBu-2OH-5MM, 2-(2-aminoethyl)-5-isobutyl-4-(methoxymethyl)phenol] | 22.3% | 51.6% | 8.3% | 10.2% | −1.9% |  |  |  |  |
| COCCc1cc(CCN)c(OC)cc1Br [Compound 2CB-5ME, reference compound] | 6.2% | 33.6% | −3.0% | −10.4% | 4.0% | 75% | 79% | 32.9 ×10⁻⁶ cm/s | 13.8 ×10⁻⁶ cm/s |
| COCc1cc(CCN)c(OC)cc1Br [Compound 2CB-5MM, 2-(4-bromo-2-methoxy-5-(methoxymethyl)phenyl)ethan-1-amine] | 10.7% | 29.4% | −1.8% | −8.0% | −10.4% | 78% | 83% | 29.9 ×10⁻⁶ cm/s | 14.5 ×10⁻⁶ cm/s |
| COCc1cc(CCN)c(OC)cc1CC(C)C [Compound 2CiBu-5MM, 2-[4-isobutyl-2-methoxy-5-(methoxymethyl)phenyl]ethanamine] | 7.7% | 7.6% | 6.6% | −7.0% | −5.6% | 76% | 79% | 24.8 ×10⁻⁶ cm/s | 13.3 ×10⁻⁶ cm/s |
